Measurements reported in patent US11866430B2, “Naphthyridinone compounds useful as T cell activators” (priority 2018, dated 2024).
pIC50: −log10 of the molar value.

How the values were obtained:
[1] = target: T1, human DGKζ (Homo sapiens (Human), UniProt Q13574); assay: DGKζ LIPGLO assay (extruded liposome substrate); format: biochemical
Protocol: (§1) The DGKα and DGKζ reactions were performed using either extruded liposome (DGKα and DGKζ LIPGLO assays) or detergent/lipid micelle substrate (DGKα and DGKζ assays). The reactions were carried out in 50 mM MOPS pH 7.5, 100 mM NaCl, 10 mM MgCl2, 1 μM CaCl2, and 1 mM DTT (assay buffer). The reactions using a detergent/lipid micelle substrate also contained 50 mM octyl B-D-glucopyranoside.
(§2) A 5 mL enzyme/substrate solution at 2× final reaction concentration was prepared by combining 2.5 mL 4× enzyme solution (20 nM DGKα or DGKζ (prepared as described below) in assay buffer) and 2.5 mL of either 4× liposome or 4× detergent/lipid micelle solution (compositions described below) and incubated at room temperature for 10 minutes. Next, 1 μL 2× enzyme/substrate solution was added to wells containing the test compound and reactions were initiated with the addition of 1 μL 300 uM ATP. The reactions were allowed to proceed for 1 hr, after which 2 μL Glo Reagent (Promega V9101) was added and incubated for 40 minutes. Next, 4 μL Kinase Detection Reagent was added and incubated for 30 minutes. Luminescence was recorded using an EnVision microplate reader. […] The compounds were evaluated at 11 concentrations to determine IC50.
(§3) The PC, DAG, and PS were dissolved in chloroform, combined, and dried in vacuo to a thin film. The lipids were hydrated to 20 mM in 50 mM MOPS pH 7.5, 100 mM NaCl, 5 mM MgCl2, and were freeze-thawed five times. The lipid suspension was extruded through a 100 nm polycarbonate filter eleven times. […] The liposome preparation was stored at 4° C. for as long as four weeks.
Baculovirus amplification was achieved using infected Sf9 cells at 1:1500 virus/cell ratios, and grown for 65 hours at 27° C. post-transfection.
(§4) The expression scale up for each protein was carried out in the Cellbag 50 L WAVE-Bioreactor System 20/50 from GE Healthcare Bioscience. 12 L of 2×10^6 cells/mL Sf9 cells (Expression System, Davis, Calif.) grown in ESF921 insect medium (Expression System) were infected with virus stock at 1:200 virus/cell ratios, and grown for 66-68 hours at 27° C. post-infection. The infected cell culture was harvested by centrifugation at 2000 rpm for 20 min 4° C. in a SORVALL® RC12BP centrifuge. The cell pellets were stored at −70° C. until purification.
The cells were lysed using nitrogen cavitation method with a nitrogen bomb (Parr Instruments), and the lysates were clarified by centrifugation. […] The three steps column chromatography included nickel affinity resin capture (i.e. HisTrap FF crude, GE Healthcare), followed by size exclusion chromatography (i.e. HiLoad 26/600 Superdex 200 prep grade, GE Healthcare for DGK-alpha, and HiPrep 26/600 Sephacryl S 300_HR, GE Healthcare for DGK-zeta). The third step was ion exchange chromatography, and differed for the two isoforms. DGKα was polished using Q-Sepharose anion exchange chromatography (GE Healthcare). DGKζ was polished using SP Sepharose cation exchange chromatography (GE Healthcare). The proteins were delivered at concentrations of ≥2 mg/mL. The formulation buffers were identical for both proteins: 50 mM Hepes, pH 7.2, 500 mM NaCl, 10% v/v glycerol, 1 mM TCEP, and 0.5 mM EDTA.

[2] = tested on: pre-activated CD4 T cells and Raji cells; assay: Raji CD4 T Cell IL2 Assay; format: cell-based; conditions: Homo sapiens, Raji
[3] = target: T2, human DGKα (Homo sapiens (Human), UniProt P23743); assay: biochemical; conditions: detergent/lipid micelle substrate; read-out: DGKα IC50
T2 sequence (P23743 other isoform, or with tags, fused parts or gaps): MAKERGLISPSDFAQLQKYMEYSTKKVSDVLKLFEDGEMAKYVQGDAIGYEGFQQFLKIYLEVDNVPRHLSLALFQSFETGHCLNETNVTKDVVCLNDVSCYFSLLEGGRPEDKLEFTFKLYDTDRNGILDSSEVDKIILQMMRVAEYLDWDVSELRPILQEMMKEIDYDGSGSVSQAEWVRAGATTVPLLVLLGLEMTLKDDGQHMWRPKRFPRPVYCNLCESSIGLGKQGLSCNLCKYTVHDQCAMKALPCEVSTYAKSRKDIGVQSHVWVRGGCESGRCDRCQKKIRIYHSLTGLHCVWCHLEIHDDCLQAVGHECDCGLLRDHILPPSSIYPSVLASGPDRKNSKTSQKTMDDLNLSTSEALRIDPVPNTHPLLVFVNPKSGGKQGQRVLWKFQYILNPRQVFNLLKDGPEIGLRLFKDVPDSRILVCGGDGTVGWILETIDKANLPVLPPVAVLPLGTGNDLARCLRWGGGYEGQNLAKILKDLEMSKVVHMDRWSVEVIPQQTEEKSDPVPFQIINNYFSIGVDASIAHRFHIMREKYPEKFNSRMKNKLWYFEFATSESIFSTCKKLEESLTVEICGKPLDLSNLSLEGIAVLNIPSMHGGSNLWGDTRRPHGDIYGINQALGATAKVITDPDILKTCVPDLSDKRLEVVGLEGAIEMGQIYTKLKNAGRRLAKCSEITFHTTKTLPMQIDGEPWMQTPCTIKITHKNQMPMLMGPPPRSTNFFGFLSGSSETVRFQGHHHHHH
How it was run: (§5)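 Full-length human DGKα or DGKζ (C-terminal His tag, Sf9-expressed; 20 nM 4× stock) was preincubated 10 min at room temperature with PS/DAG octyl glucoside micelles in MOPS pH 7.5 buffer with MgCl2, CaCl2 and DTT. It was then started with ATP (300 uM addition) and run for 1 hr, with ADP-Glo luminescence read-out.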

[4] = target: T1, human DGKζ; assay: DGKζ assay (detergent/lipid micelle substrate); format: biochemical
How it was run: as §5

[5] = target: T2, human DGKα; assay: DGKα LIPGLO assay (extruded liposome substrate); format: biochemical
Protocol: as §1, with “B-D-glucopyranoside. […] The lipid substrate concentrations were […], 0.25 mM DAG, and 2.75 mM PC for the extruded liposome reactions.” for “B-D-glucopyranoside.”
as §2, with “The compound inhibition studies were carried out as follows: 50 nL droplets of each test compound (top concentration 10 mM with 11 point, 3-fold dilution series for each compound) solubilized in DMSO were transferred to wells of a white 1536 well plate (Corning 3725). A 5” for “A 5”
as §3
Human DGK-alpha-TVMV-His-pFBgate and human DCK-zeta-transcript variant-2-TVMV-His-pFBgate baculovirus samples were generated using the Bac-to-Bac baculovirus expression system (Invitrogen) according to the manufacturer's protocol. The DNA used for expression of DGK-alpha and DGK-zeta have SEQ ID NOs: 1 and 3, respectively. Baculovirus amplification was achieved using infected Sf9 cells at 1:1500 virus/cell ratios, and grown for 65 hours at 27° C. post-transfection.
as §4
Full length human DGKα and DGKζ, each expressed containing a TVMV-cleavable C-terminal Hexa-His tag sequence (SEQ ID NOs: 2 and 4, respectively) and produced as described above, were purified from Sf) baculovirus-infected insect cell paste. The cells were lysed using nitrogen cavitation method with a nitrogen bomb (Parr Instruments), and the lysates were clarified by centrifugation. […] The three steps column chromatography included nickel affinity resin capture (i.e. HisTrap FF crude, GE Healthcare), followed by size exclusion chromatography (i.e. HiLoad 26/600 Superdex 200 prep grade, GE Healthcare for DGK-alpha, and HiPrep 26/600 Sephacryl S 300_HR, GE Healthcare for DGK-zeta). The third step was ion exchange chromatography, and differed for the two isoforms.

[6] = extruded liposome substrate, read-out: DGKζ LIPGLO IC50
[7] = detergent/lipid micelle substrate, read-out: DGKζ IC50

T1 sequence (Q13574 other isoform, or with tags, fused parts or gaps): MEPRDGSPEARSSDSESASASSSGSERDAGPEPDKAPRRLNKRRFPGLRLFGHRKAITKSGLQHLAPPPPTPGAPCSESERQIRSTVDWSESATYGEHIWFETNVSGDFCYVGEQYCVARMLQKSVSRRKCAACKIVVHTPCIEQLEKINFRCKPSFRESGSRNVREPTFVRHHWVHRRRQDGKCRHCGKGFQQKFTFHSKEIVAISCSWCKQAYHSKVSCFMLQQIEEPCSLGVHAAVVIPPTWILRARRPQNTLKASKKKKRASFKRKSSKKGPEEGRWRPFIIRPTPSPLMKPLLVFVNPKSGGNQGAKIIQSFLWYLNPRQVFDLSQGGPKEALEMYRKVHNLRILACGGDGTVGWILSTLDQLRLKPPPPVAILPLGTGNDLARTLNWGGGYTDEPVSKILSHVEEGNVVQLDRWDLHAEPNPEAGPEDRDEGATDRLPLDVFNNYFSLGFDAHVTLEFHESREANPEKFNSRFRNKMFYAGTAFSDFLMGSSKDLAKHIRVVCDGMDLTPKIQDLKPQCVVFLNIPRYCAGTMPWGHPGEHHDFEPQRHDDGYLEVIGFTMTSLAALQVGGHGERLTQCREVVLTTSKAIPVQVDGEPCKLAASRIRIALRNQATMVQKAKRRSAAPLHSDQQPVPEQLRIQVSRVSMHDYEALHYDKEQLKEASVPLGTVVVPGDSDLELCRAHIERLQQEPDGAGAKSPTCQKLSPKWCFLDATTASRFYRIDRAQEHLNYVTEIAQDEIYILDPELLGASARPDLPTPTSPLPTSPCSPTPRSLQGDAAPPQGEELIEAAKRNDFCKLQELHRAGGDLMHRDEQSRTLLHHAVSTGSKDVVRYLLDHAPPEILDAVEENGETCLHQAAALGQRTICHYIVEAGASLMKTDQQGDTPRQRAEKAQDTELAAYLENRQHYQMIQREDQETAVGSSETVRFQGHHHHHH

Q: `C#CCn1c(=O)c([N+](=O)[O-])c(N2CCN(C(c3ccc(F)cc3)c3ccccc3OC)CC2)c2nc(C#N)ccc21` (single isomer, unassigned) [Example 130, 8-(4-((4-fluorophenyl)(2-methoxyphenyl)methyl)piperazin-1-yl)-7-nitro-6-oxo-5-(prop-2-yn-1-yl)-5,6-dihydro-1,5-naphthyridine-2-carbonitrile] was tested. Which pIC50 [1, 6] did it give?
A: 6.51

Q: And the pIC50 [2]?
A: 7.72

Q: And the pIC50 [3]?
A: 4.52

Q: What about the pIC50 [4, 7] of the same compound?
A: 5.72

Q: How did the pIC50 [5] turn out when `CC(c1ccc(F)cc1)N1CCN(c2c(C#N)c(=O)n(CC3CC3)c3ccc(Br)nc23)CC1` (single isomer, unassigned) [Example 163, 6-bromo-1-(cyclopropylmethyl)-4-(4-(1-(4-fluorophenyl)ethyl)piperazin-1-yl)-2-oxo-1,2-dihydro-1,5-naphthyridine-3-carbonitrile] was run?
A: 3.96

Q: What about the pIC50 ([1]; DGKζ LIPGLO IC50, extruded liposome substrate) of the same compound?
A: 3.96

Q: What about the pIC50 [3] of the same compound?
A: < 3.62

Q: And the pIC50 ([4]; DGKζ IC50, detergent/lipid micelle substrate)?
A: < 3.62

Q: What does the source list for `Cn1c(=O)c([N+](=O)[O-])c(N2CCN(Cc3cccc4ccccc34)CC2)c2nc(Br)ccc21` [Example 55, 6-bromo-1-methyl-4-(4-(naphthalen-1-ylmethyl)piperazin-1-yl)-3-nitro-1,5-naphthyridin-2(1H)-one]?
A: pIC50 [5]: 6.72; pIC50 [1, 6]: 5.74; pIC50 [2]: 7.42

Q: `COc1ccc2c(n1)c(N1CCN(C(c3ccc(F)cc3)c3ccc(F)cc3)CC1)c(C#N)c(=O)n2C` [Example 103, 4-(4-(bis(4-fluorophenyl)methyl)piperazin-1-yl)-6-methoxy-1-methyl-2-oxo-1,2-dihydro-1,5-naphthyridine-3-carbonitrile] was tested. Which pIC50 [5] did it give?
A: 5.21

Q: What about the pIC50 [1, 6] of the same compound?
A: 6.00

Q: And the pIC50 [2]?
A: 6.40

Q: With `C#CCn1c(=O)c([N+](=O)[O-])c(N2CCN(C(c3ccccc3)c3ccccc3)CC2)c2ncccc21` [Example 165, 4-(4-benzhydrylpiperazin-1-yl)-3-nitro-1-(prop-2-yn-1-yl)-1,5-naphthyridin-2(1H)-one] as the compound, how does the pIC50 [5] read?
A: 5.55

Q: And the pIC50 [1, 6]?
A: 5.39

Q: What about the pIC50 [3] of the same compound?
A: 5.47

Q: And the pIC50 [4, 7]?
A: 4.04

Q: With `Cc1ccc2c(n1)c(N1CCN(C(c3ccc(F)cc3)C3CC3)CC1)c(C#N)c(=O)n2C` (centres unmarked) [Example 250, 4-{4-[cyclopropyl(4-fluorophenyl)methyl]piperazin-1-yl}-1,6-dimethyl-2-oxo-1,2-dihydro-1,5-naphthyridine-3-carbonitrile] as the compound, how does the pIC50 [5] read?
A: 5.29

Q: And the pIC50 [1, 6]?
A: < 3.62

Q: How did the pIC50 [5] turn out when `COc1ncccc1C(c1ccc(F)cc1)N1CCN(c2c(C#N)c(=O)n(C)c3ccc(C)nc23)CC1` (centres unmarked) [Example 254, 4-{4-[(4-fluorophenyl)(2-methoxypyridin-3-yl)methyl]piperazin-1-yl}-1,6-dimethyl-2-oxo-1,2-dihydro-1,5-naphthyridine-3-carbonitrile] was run?
A: 5.77

Q: And the pIC50 [1, 6]?
A: 4.80

Q: `COc1cccnc1C(c1ccc(F)cc1)N1CCN(c2c(C#N)c(=O)n(C)c3ccc(C)nc23)CC1` (centres unmarked) [Example 255, 4-{4-[(4-fluorophenyl)(3-methoxypyridin-2-yl)methyl]piperazin-1-yl}-1,6-dimethyl-2-oxo-1,2-dihydro-1,5-naphthyridine-3-carbonitrile] was tested. Which pIC50 [5] did it give?
A: 5.85

Q: And the pIC50 [1, 6]?
A: 4.68

Q: What does the source list for `Cn1c(=O)c(C#N)c(N2CCN(Cc3ccc(Cl)cc3O)CC2)c2nc(Br)ccc21` [Example 266, 6-bromo-4-{4-[(4-chloro-2-hydroxyphenyl)methyl]piperazin-1-yl}-1-methyl-2-oxo-1,2-dihydro-1,5-naphthyridine-3-carbonitrile]?
A: pIC50 [1, 6]: 4.96; pIC50 [2]: 7.39; pIC50 [3]: 7.57; pIC50 [4, 7]: < 3.62

Q: `Cn1c(=O)c(C#N)c(N2CCN(C(c3ccc(F)cc3)c3ccc(F)cc3)CC2)c2ncccc21` [Example 347, 4-{4-[bis(4-fluorophenyl)methyl]piperazin-1-yl}-1-methyl-2-oxo-1,2-dihydro-1,5-naphthyridine-3-carbonitrile] was tested. Which pIC50 [5] did it give?
A: 5.59

Q: What about the pIC50 [2] of the same compound?
A: 5.92

Q: `Cn1c(=O)c(C#N)c(N2CCN(Cc3ccc(OC(F)(F)F)cc3O)CC2)c2nc(Cl)ccc21` [Example 381, 6-chloro-4-(4-{[2-hydroxy-4-(trifluoromethoxy)phenyl]methyl}piperazin-1-yl)-1-methyl-2-oxo-1,2-dihydro-1,5-naphthyridine-3-carbonitrile] was tested. Which pIC50 [1, 6] did it give?
A: 4.57

Q: What about the pIC50 [4, 7] of the same compound?
A: < 3.62

Q: With `Cc1ccc(C(c2ccccc2)N2CCN(c3c(C#N)c(=O)n(C)c4ccc(C#N)nc34)CC2)cc1` (centres unmarked) [Example 408, 5-methyl-8-{4-[(4-methylphenyl)(phenyl)methyl]piperazin-1-yl}-6-oxo-5,6-dihydro-1,5-naphthyridine-2,7-dicarbonitrile] as the compound, how does the pIC50 [5] read?
A: 5.05

Q: And the pIC50 [1, 6]?
A: 5.96

Q: `COc1cc(F)ccc1C(c1ccc(F)cc1OC)N1CCN(c2c(C#N)c(=O)n(C)c3ccc(C#N)nc23)CC1` [Example 409, 8-{4-[bis(4-fluoro-2-methoxyphenyl)methyl]piperazin-1-yl}-5-methyl-6-oxo-5,6-dihydro-1,5-naphthyridine-2,7-dicarbonitrile] was tested. Which pIC50 [5] did it give?
A: < 3.62

Q: And the pIC50 [1, 6]?
A: 6.02

Q: With `Cc1ccc(C(c2ccccc2)N2CCN(c3c(C#N)c(=O)n(C)c4ccc(Br)nc34)CC2)cc1` (centres unmarked) [Example 431, 6-bromo-1-methyl-4-{4-[(4-methylphenyl)(phenyl)methyl]piperazin-1-yl}-2-oxo-1,2-dihydro-1,5-naphthyridine-3-carbonitrile] as the compound, how does the pIC50 [5] read?
A: 5.05

Q: What about the pIC50 [1, 6] of the same compound?
A: 5.05
